From patent US12274706B2 (MEDAC GESELLSCHAFT FUER KLINISCHE SPEZIALPRAEPARATE MBH, priority 2017, dated 2025)
In brackets after ≈: the same amount, converted by molar mass. Several values for one entry are separate records, joined by “and”; a condition that tells them apart may be missing. Identical values can stand only once. Like-named read-outs stand apart in the source and are kept apart here.

Columns and labels:
[1] = Water vapor uptake (GVS); assay type: physicochemical
[2] = Solubility of sulfasalazine, Form A meglumine salt and pharmaceutical compositions (HPLC); assay type: physicochemical
Experimental: The mobile phase consists of mobile phase (A): 1.13 g sodium dihydrogen phosphate and 2.5 g sodium acetate are dissolved in 1000 mL purified water. The pH is afterwards adjusted with acetic acid (100%) to 4.8. and mobile phase (B): 1 part mobile phase A is mixed with 4 parts of methanol for chromatography. The flow rate was 1.0 mL/min, injection volume 5 μL and detection wavelengths 320 nm (HP DAD series 1100). Run time is 10 min. Quantitation was performed using external standard methodology. The assay method has been validated with respect to selectivity, repeatability and linearity. Samples are prepared with dilute ammonia R3 PhEur.
The saturated solutions were filtrated using centrifuge filters (Nylon, […]) and the clear supernatants were respectively injected either directly or after dilution with dilute ammonia R3 PhEur.
The resulting solution is further diluted with phosphate buffer (pH 6.8) to 1% v/v solution prior. The resulting phosphate buffer solution is diluted with dilute ammonia R3 prior to injection.

[3] = cited from earlier work
[4] = cited from earlier work; remark: listed apart in the source
[5] = tested on: binding of TNF-alpha to its receptor; conditions: 125I-TNF-alpha displacement; cited from earlier work
[6] = in vitro; conditions: human, Caco-2
[7] = physchem; conditions: de-ionized water, 24 °C

CCNCC.O=C(O)c1cc(N=Nc2ccc(S(=O)(=O)Nc3ccccn3)cc2)ccc1O [Form A diethylamine salt, diethylamine 2-hydroxy-5-[2-[4-[(2-pyridinylamino)sulfonyl]phenyl]diazenyl]-benzoate, crystal Form A]
water vapor uptake (GVS; % w/w) at 30% RH [1]: 0.3 % w/w | water vapor uptake (GVS; % w/w) at 80% RH [1]: 0.5 % w/w

CNCC(O)C(O)C(O)C(O)CO.O=C(O)c1cc(N=Nc2ccc(S(=O)(=O)Nc3ccccn3)cc2)ccc1O [Form A meglumine salt, D(−)-N-methylglucamine 2-hydroxy-5-[2-[4-[(2-pyridinylamino)sulfonyl]phenyl]diazenyl]-benzoate, crystal Form A]
Solubility (mg/mL) FaSSIF-V2 ([2]; FaSSIF-V2 medium, room temperature (20-25° C.), saturated solution): 15.3 mg/mL | Solubility (mg/mL) Water ([2]; water, diluted in phosphate Buffer pH 6.8): 60.3 mg/mL | Solubility (mg/mL) Water ([2]; water, room temperature): 104.8 mg/mL | water vapor uptake (GVS; % w/w) at 30% RH ([1]; listed as 4.1): < 0.4 % w/w | water vapor uptake (GVS; % w/w) at 30% RH ([1]; listed as 4.2): 0.4 % w/w | water vapor uptake (GVS; % w/w) at 80% RH [1]: 1.1 % w/w | water vapor uptake (GVS; % w/w) at 80% RH ([1]; listed as 4.1): < 0.9 % w/w | solubility in de-ionized water at 24° C. and pH 6.6: > 54 mg/mL

C1CNCCN1.O=C(O)c1cc(N=Nc2ccc(S(=O)(=O)Nc3ccccn3)cc2)ccc1O [Form A piperazine salt, piperazine 2-hydroxy-5-[2-[4-[(2-pyridinylamino)sulfonyl]phenyl]diazenyl]-benzoate, crystal Form A]
water vapor uptake (GVS; % w/w) at 30% RH [1]: 0.4 % w/w | water vapor uptake (GVS; % w/w) at 80% RH [1]: 0.9 % w/w

Nc1ccc(S(=O)(=O)Nc2ccccn2)cc1 [sulfapyridine]
systemic bioavailability ([3]; metabolite formed from non-absorbed sulfasalazine by gut flora): about 60%

O=C(O)c1cc(N=Nc2ccc(S(=O)(=O)Nc3ccccn3)cc2)ccc1O [sulfasalazine, 2-hydroxy-5-[2-[4-[(2-pyridinylamino)sulfonyl]phenyl]diazenyl]-benzoic acid]
solubility at 24 h ([2]; pH 5.9, thermodynamic from solid, water, room temperature, read-out: Solubility (mg/mL) Water): 0.06 mg/mL | solubility at 24 h ([2]; pH 6.3, thermodynamic from solid, FaSSIF-V2 medium, room temperature (20-25° C.), saturated solution, read-out: Solubility (mg/mL) FaSSIF-V2): 0.78 mg/mL | solubility in de-ionized water at 24° C. ([4]; 24° C., literature value): 30 µg/mL and 31 µg/mL | solubility class according to United States Pharmacopoeia (practically insoluble) ([4]; USP classification): < 100 µg/mL | solubility in water ([4]; water): less than 5 mg/100 ml | half-life ([3]; intravenously administered): approximately 7.6±3.6 hours | median peak concentration (time) ([3]; man, oral): 6 h | binding of TNF-alpha to its receptor [5]: inhibits | Papp A→B at 180 min, 200 μg/mL [6]: 1.16 ×10⁻⁶ cm/s | Papp A→B at 180 min, 2000 μg/mL [6]: 0.81 ×10⁻⁶ cm/s | Papp B→A at 180 min, 200 μg/mL [6]: 4.76 ×10⁻⁶ cm/s | Papp B→A at 180 min, 2000 μg/mL [6]: 2.79 ×10⁻⁶ cm/s | solubility [7]: 60 µg/mL (≈ 151 µM)
